Experimental data reported in US7709636B2, “Pyrazole sulfonylurea compound and herbicide” (Nissan Chemical Industries, Ltd., priority 2004, dated 2010).

Assays:
[1] = tested on: Echinochloa crus-galli; test: Herbicidal effect test in submerged condition by treatment before weed-generation (1); assay type: in vivo; conditions: 0.64 g/a, water surface treated on day of sowing, 3 weeks after treatment
Description: (§1) Herbicidal Effect Test in Submerged Condition by Treatment Before Weed-Generation (1)
(§2) After alluvial soil was placed in a styrol cup of 1/30000 are, water was poured therein and mixed, and adjusted to a submerged condition of water depth 4 cm. After seeds of Echinochloa crus-galli, Scirpus juncoides and Monochoria vaginalis were sown in the cup, rice seedlings at 2.5th leaf stage were transplanted. On the day when the seeds were sown, the wettable powder of the present invention prepared according to Formulation Example 1 was diluted with water so as to give a predetermined formulation amount, and the surface of the water was treated with the diluted wettable powder. The plants were grown by putting the cup in a green house at 25 to 30° C., and investigated on herbicidal effect against each weed 3 weeks after treatment with the herbicide according to the following criteria.
(§3) 5 Herbicidal rate 90% or more (almost complete death)
(§4) 4 Herbicidal rate 70% or more and less than 90%
(§5) 3 Herbicidal rate 40% or more and less than 70%
(§6) 2 Herbicidal rate 20% or more and less than 40%
(§7) 1 Herbicidal rate 5% or more and less than 20%
(§8) 0 Herbicidal rate 5% or less (little effect)

[2] = tested on: Monochoria vaginalis; test: as above; assay type: in vivo; conditions: 0.64 g/a, water surface treated on day of sowing, 3 weeks after treatment
Description: as §1, §2, §3, §4, §5, §6, §7, §8

[3] = tested on: Scirpus juncoides; test: as above; assay type: in vivo; conditions: 0.64 g/a, water surface treated on day of sowing, 3 weeks after treatment
Description: as §1, §2, §3, §4, §5, §6, §7, §8

[4] = tested on: Echinochloa crus-galli; test: Herbicidal effect test in submerged condition by treatment during weed-growth stage (1); assay type: in vivo; conditions: 0.64 g/a, treated at 1st to 2nd leaf stage, 3 weeks after treatment
Description: (§9) Herbicidal Effect Test in Submerged Condition by Treatment During Weed-Growth Stage (1) After alluvial soil was placed in a styrol cup of 1/30000 are, water was poured therein and mixed, and adjusted to a submerged condition of water depth 4 cm. After seeds of Echinochloa crus-galli, Scirpus juncoides and Monochoria vaginalis were sown in the cup, the plants were grown by putting the cup in a green house at 25 to 30° C. When Echinochloa crus-galli, Scirpus juncoides and Monochoria vaginalis reached 1st to 2nd leaf stage, the wettable powder of the present invention prepared according to Formulation Example 1 was diluted with water so as to give a predetermined formulation amount, and the surface of the water was treated with the diluted wettable powder. The herbicidal effect for each plant was investigated 3 weeks after treatment with the herbicide according to the criteria indicated in Test Example 1.

[5] = tested on: Monochoria vaginalis; test: as above; assay type: in vivo; conditions: 0.64 g/a, treated at 1st to 2nd leaf stage, 3 weeks after treatment
Description: as §9

[6] = tested on: Scirpus juncoides; test: as above; assay type: in vivo; conditions: 0.64 g/a, treated at 1st to 2nd leaf stage, 3 weeks after treatment
Description: as §9

[7] = tested on: Abutilon avicennae; test: Herbicidal effect test by soil treatment; assay type: in vivo; conditions: 1.6 g/a, 3 weeks after treatment
Description: (§10) Herbicidal Effect Test by Soil Treatment
(§11) Sterilized diluvial soil was placed in a plastic box having a size of length 21 cm, width 13 cm and depth 7 cm, seeds Echinochloa crus-galli, Digitaria adscendes, Setaria viridis, Avena fatua, Black-grass, Abutilon avicennae, Ambrosia elatior, Amaranthus retroflexus, Chenopodium album, Polygonum blumei, Stellaria media, Zea mays (corn), Glycine max (soybean), Oryza sativa (rice), Triticum aestivum (wheat) and Beta vulgaris (beat) were sown interspatially, covered with about 1.5 cm of soil, and then the wettable powder of the present invention prepared according to Formulation Example 1 was diluted with water so as to give a predetermined formulation amount, and the surface of the soil was uniformly treated with the diluted wettable powder by use of a small-sized spray. The herbicidal effect for each plant was investigated 3 weeks after treatment with the herbicide according to the criteria indicated in Test Example 1.

[8] = tested on: Amaranthus retroflexus; test: Herbicidal effect test by soil treatment; assay type: in vivo; conditions: 1.6 g/a, 3 weeks after treatment
Description: as §10, §11

[9] = tested on: Ambrosia elatior; test: Herbicidal effect test by soil treatment; assay type: in vivo; conditions: 1.6 g/a, 3 weeks after treatment
Description: as §10, §11

[10] = tested on: Avena fatua; test: Herbicidal effect test by soil treatment; assay type: in vivo; conditions: 1.6 g/a, 3 weeks after treatment
Description: as §10, §11

[11] = tested on: Beta vulgaris (beet); test: Herbicidal effect test by soil treatment; assay type: in vivo; conditions: 1.6 g/a, 3 weeks after treatment
Description: as §10, §11

[12] = tested on: Black-grass; test: Herbicidal effect test by soil treatment; assay type: in vivo; conditions: 1.6 g/a, 3 weeks after treatment
Description: as §10, §11

[13] = tested on: Chenopodium album; test: Herbicidal effect test by soil treatment; assay type: in vivo; conditions: 1.6 g/a, 3 weeks after treatment
Description: as §10, §11

[14] = tested on: Digitaria adscendes; test: Herbicidal effect test by soil treatment; assay type: in vivo; conditions: 1.6 g/a, 3 weeks after treatment
Description: as §10, §11

[15] = tested on: Echinochloa crus-galli; test: Herbicidal effect test by soil treatment; assay type: in vivo; conditions: 1.6 g/a, 3 weeks after treatment
Description: as §10, §11

[16] = tested on: Polygonum blumei; test: Herbicidal effect test by soil treatment; assay type: in vivo; conditions: 1.6 g/a, 3 weeks after treatment
Description: as §10, §11

[17] = tested on: Setaria viridis; test: Herbicidal effect test by soil treatment; assay type: in vivo; conditions: 1.6 g/a, 3 weeks after treatment
Description: as §10, §11

[18] = tested on: Stellaria media; test: Herbicidal effect test by soil treatment; assay type: in vivo; conditions: 1.6 g/a, 3 weeks after treatment
Description: as §10, §11

[19] = tested on: Triticum aestivum (wheat); test: Herbicidal effect test by soil treatment; assay type: in vivo; conditions: 1.6 g/a, 3 weeks after treatment
Description: as §10, §11

[20] = tested on: corn (Zea mays); test: Herbicidal effect test by soil treatment; assay type: in vivo; conditions: 1.6 g/a, 3 weeks after treatment
Description: as §10, §11

[21] = tested on: soybean (Glycine max); test: Herbicidal effect test by soil treatment; assay type: in vivo; conditions: 1.6 g/a, 3 weeks after treatment
Description: as §10, §11

[22] = tested on: direct sown rice; test: Herbicidal effect test by soil treatment; assay type: in vivo, Oryza sativa; conditions: 1.6 g/a, 3 weeks after treatment
Description: as §10, §11

[23] = tested on: Abutilon avicennae; test: Herbicidal effect test by foliage treatment; assay type: in vivo; conditions: 1.6 g/a; foliage treatment after growth of 14 days; 3 weeks after treatment
Description: (§12) Herbicidal Effect Test by Foliage Treatment
(§13) Sterilized diluvial soil was placed in a plastic box having a size of length 21 cm, width 13 cm and depth 7 cm, seeds of Echinochloa crus-galli, Digitaria adscendes, Setaria viridis, Avena fatua, Black-grass, Abutilon avicennae, Ambrosia elatior, Amaranthus retroflexus, Chenopodium album, Polygonum blumei, Stellaria media, Zea mays, Glycine max, Oryza sativa, Triticum aestivum and Beta vulgaris were sown interspatially, covered with about 1.5 cm of soil, and then the plants were grown by putting the box in a green house at 25 to 30° C. After growth of 14 days, the wettable powder of the present invention prepared according to Formulation Example 1 was diluted with water so as to give a predetermined formulation amount, and the foliage part was uniformly treated with the diluted wettable powder by use of a small-sized spray. The herbicidal effect for each plant was investigated 3 weeks after treatment with the herbicide according to the criteria indicated in Test Example 1.

[24] = tested on: Amaranthus retroflexus; test: Herbicidal effect test by foliage treatment; assay type: in vivo; conditions: 1.6 g/a; foliage treatment after growth of 14 days; 3 weeks after treatment
Description: as §12, §13

[25] = tested on: Ambrosia elatior; test: Herbicidal effect test by foliage treatment; assay type: in vivo; conditions: 1.6 g/a; foliage treatment after growth of 14 days; 3 weeks after treatment
Description: as §12, §13

[26] = tested on: Avena fatua; test: Herbicidal effect test by foliage treatment; assay type: in vivo; conditions: 1.6 g/a; foliage treatment after growth of 14 days; 3 weeks after treatment
Description: as §12, §13

[27] = tested on: Beta vulgaris (beet); test: Herbicidal effect test by foliage treatment; assay type: in vivo; conditions: 1.6 g/a; foliage treatment after growth of 14 days; 3 weeks after treatment
Description: as §12, §13

[28] = tested on: Chenopodium album; test: Herbicidal effect test by foliage treatment; assay type: in vivo; conditions: 1.6 g/a; foliage treatment after growth of 14 days; 3 weeks after treatment
Description: as §12, §13

[29] = tested on: Digitaria adscendes; test: Herbicidal effect test by foliage treatment; assay type: in vivo; conditions: 1.6 g/a; foliage treatment after growth of 14 days; 3 weeks after treatment
Description: as §12, §13

[30] = tested on: Echinochloa crus-galli; test: Herbicidal effect test by foliage treatment; assay type: in vivo; conditions: 1.6 g/a; foliage treatment after growth of 14 days; 3 weeks after treatment
Description: as §12, §13

[31] = tested on: Polygonum blumei; test: Herbicidal effect test by foliage treatment; assay type: in vivo; conditions: 1.6 g/a; foliage treatment after growth of 14 days; 3 weeks after treatment
Description: as §12, §13

[32] = tested on: Setaria viridis; test: Herbicidal effect test by foliage treatment; assay type: in vivo; conditions: 1.6 g/a; foliage treatment after growth of 14 days; 3 weeks after treatment
Description: as §12, §13

[33] = tested on: Stellaria media; test: Herbicidal effect test by foliage treatment; assay type: in vivo; conditions: 1.6 g/a; foliage treatment after growth of 14 days; 3 weeks after treatment
Description: as §12, §13

[34] = tested on: Triticum aestivum (wheat); test: Herbicidal effect test by foliage treatment; assay type: in vivo; conditions: 1.6 g/a; foliage treatment after growth of 14 days; 3 weeks after treatment
Description: as §12, §13

[35] = tested on: corn (Zea mays); test: Herbicidal effect test by foliage treatment; assay type: in vivo; conditions: 1.6 g/a; foliage treatment after growth of 14 days; 3 weeks after treatment
Description: as §12, §13

[36] = tested on: soybean (Glycine max); test: Herbicidal effect test by foliage treatment; assay type: in vivo; conditions: 1.6 g/a; foliage treatment after growth of 14 days; 3 weeks after treatment
Description: as §12, §13

[37] = tested on: direct sown rice; test: Herbicidal effect test by foliage treatment; assay type: in vivo, Oryza sativa; conditions: 1.6 g/a; foliage treatment after growth of 14 days; 3 weeks after treatment
Description: as §12, §13

For COc1cc(OC)nc(NC(=O)NS(=O)(=O)c2c(C3=NOCC(C)(C)O3)c(Cl)nn2C)n1 [Compound 3, N-((4,6-dimethoxypyrimidin-2-yl)aminocarbonyl)-3-chloro-4-(5,5-dimethyl-5H,6H-1,4,2-dioxadin-3-yl)-1-methylpyrazole-5-sulfonamide], the “herbicidal effect, A: Echinochloa crus-galli” value [1] was 5 (Herbicidal rate 90% or more (almost complete death)), the “herbicidal effect, C: Monochoria vaginalis” value [2] was 5 (Herbicidal rate 90% or more (almost complete death)) and the “herbicidal effect, B: Scirpus juncoides” value [3] was 5 (Herbicidal rate 90% or more (almost complete death)). For the same compound, the “herbicidal effect, A: Echinochloa crus-galli” value [4] was 5 (Herbicidal rate 90% or more (almost complete death)), the “herbicidal effect, C: Monochoria vaginalis” value [5] was 5 (Herbicidal rate 90% or more (almost complete death)) and the “herbicidal effect, B: Scirpus juncoides” value [6] was 5 (Herbicidal rate 90% or more (almost complete death)). The “herbicidal effect, H: Abutilon avicennae” value [7] was 5 (Herbicidal rate 90% or more (almost complete death)), the “herbicidal effect, J: Amaranthus retroflexus” value [8] was 4 (Herbicidal rate 70% or more and less than 90%) and the “herbicidal effect, I: Ambrosia elatior” value [9] was 5 (Herbicidal rate 90% or more (almost complete death)). The “herbicidal effect, F: Avena fatua” value [10] was 0 (Herbicidal rate 5% or less (little effect)), the “herbicidal effect, f: Beta vulgaris (beet)” value [11] was 4 (Herbicidal rate 70% or more and less than 90%) and the “herbicidal effect, G: Black-grass” value [12] was 3 (Herbicidal rate 40% or more and less than 70%). The “herbicidal effect, K: Chenopodium album” value [13] was 3 (Herbicidal rate 40% or more and less than 70%), the “herbicidal effect, D: Digitaria adscendes” value [14] was 2 (Herbicidal rate 20% or more and less than 40%) and the “herbicidal effect, A: Echinochloa crus-galli” value [15] was 2 (Herbicidal rate 20% or more and less than 40%). For the same compound, the “herbicidal effect, L: Polygonum blumei” value [16] was 5 (Herbicidal rate 90% or more (almost complete death)), the “herbicidal effect, E: Setaria viridis” value [17] was 0 (Herbicidal rate 5% or less (little effect)) and the “herbicidal effect, M: Stellaria media” value [18] was 5 (Herbicidal rate 90% or more (almost complete death)). For the same compound, the “herbicidal effect, e: Triticum aestivum (wheat)” value [19] was 0 (Herbicidal rate 5% or less (little effect)), the “herbicidal effect, b: corn (Zea mays)” value [20] was 3 (Herbicidal rate 40% or more and less than 70%) and the “herbicidal effect, c: soybean (Glycine max)” value [21] was 1 (Herbicidal rate 5% or more and less than 20%). The “herbicidal effect, d: direct sown rice” value [22] was 0 (Herbicidal rate 5% or less (little effect)), the “herbicidal effect, H: Abutilon avicennae” value [23] was 5 (Herbicidal rate 90% or more (almost complete death)) and the “herbicidal effect, J: Amaranthus retroflexus” value [24] was 0 (Herbicidal rate 5% or less (little effect)). For the same compound, the “herbicidal effect, I: Ambrosia elatior” value [25] was 5 (Herbicidal rate 90% or more (almost complete death)), the “herbicidal effect, F: Avena fatua” value [26] was 0 (Herbicidal rate 5% or less (little effect)) and the “herbicidal effect, f: Beta vulgaris (beet)” value [27] was 3 (Herbicidal rate 40% or more and less than 70%). The “herbicidal effect, K: Chenopodium album” value [28] was 2 (Herbicidal rate 20% or more and less than 40%), the “herbicidal effect, D: Digitaria adscendes” value [29] was 3 (Herbicidal rate 40% or more and less than 70%) and the “herbicidal effect, A: Echinochloa crus-galli” value [30] was 4 (Herbicidal rate 70% or more and less than 90%). For the same compound, the “herbicidal effect, L: Polygonum blumei” value [31] was 3 (Herbicidal rate 40% or more and less than 70%), the “herbicidal effect, E: Setaria viridis” value [32] was 2 (Herbicidal rate 20% or more and less than 40%) and the “herbicidal effect, M: Stellaria media” value [33] was 5 (Herbicidal rate 90% or more (almost complete death)). For the same compound, the “herbicidal effect, e: Triticum aestivum (wheat)” value [34] was 0 (Herbicidal rate 5% or less (little effect)), the “herbicidal effect, b: corn (Zea mays)” value [35] was 4 (Herbicidal rate 70% or more and less than 90%) and the “herbicidal effect, c: soybean (Glycine max)” value [36] was 5 (Herbicidal rate 90% or more (almost complete death)). The “herbicidal effect, d: direct sown rice” value [37] was 0 (Herbicidal rate 5% or less (little effect)).
